The experiment deals with T1, mitochondrial respiratory chain complex I (CI) (Bos taurus, UniProt P03887+P17694+P42026).
T1 construct: gene NDUFS2; whole CI enzyme immunocaptured from purified bovine heart mitochondria
Put plainly: MitoTox Complex I OXPHOS Activity Microplate Assay (immunocaptured enzyme), dose-response. The experiment is classed as biochemical.

T1 sequence (P17694 34-463): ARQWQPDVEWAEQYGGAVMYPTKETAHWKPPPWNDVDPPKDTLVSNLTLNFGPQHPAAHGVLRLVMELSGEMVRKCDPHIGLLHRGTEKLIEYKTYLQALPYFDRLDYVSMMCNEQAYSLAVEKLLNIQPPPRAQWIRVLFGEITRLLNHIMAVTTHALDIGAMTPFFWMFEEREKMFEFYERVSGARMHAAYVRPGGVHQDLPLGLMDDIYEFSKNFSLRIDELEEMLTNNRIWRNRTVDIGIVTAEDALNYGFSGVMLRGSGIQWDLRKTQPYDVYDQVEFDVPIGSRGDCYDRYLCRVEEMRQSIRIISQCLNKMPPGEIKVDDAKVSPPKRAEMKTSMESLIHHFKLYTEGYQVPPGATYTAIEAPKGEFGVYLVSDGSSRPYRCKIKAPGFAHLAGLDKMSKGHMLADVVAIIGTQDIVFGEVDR
T1 sequence (P42026 38-216): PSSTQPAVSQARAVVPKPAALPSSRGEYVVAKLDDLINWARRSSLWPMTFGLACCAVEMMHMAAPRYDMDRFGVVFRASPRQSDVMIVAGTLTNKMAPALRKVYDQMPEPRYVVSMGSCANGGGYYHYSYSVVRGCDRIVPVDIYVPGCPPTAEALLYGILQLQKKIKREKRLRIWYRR
T1 sequence (P03887 whole entry): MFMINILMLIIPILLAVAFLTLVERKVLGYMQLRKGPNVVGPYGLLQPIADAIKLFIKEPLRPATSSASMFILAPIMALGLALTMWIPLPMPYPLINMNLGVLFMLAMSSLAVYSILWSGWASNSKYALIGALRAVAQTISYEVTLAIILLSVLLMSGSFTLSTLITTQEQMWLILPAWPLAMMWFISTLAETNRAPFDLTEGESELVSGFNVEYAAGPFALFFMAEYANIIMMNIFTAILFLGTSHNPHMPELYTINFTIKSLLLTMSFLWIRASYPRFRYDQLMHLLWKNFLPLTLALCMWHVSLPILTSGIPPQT

Turning to `Cc1cc(-c2nc(-c3ccc(OC(F)(F)F)cc3)no2)nn1Cc1ccnc(N2CCN(C3CC3)CC2)c1` [BAY 87-2243], the IC50 was ~500 nM.

The record behind these values is PMC6404347, “CHCHD4 confers metabolic vulnerabilities to tumour cells through its control of the mitochondrial respiratory chain” (Cancer & Metabolism, 2019).
